The values below come from paper PMC8068264 (2021).

SMILES strings stand for the structures.

Assay [1] relates to SA3-6A/B (DNA, aptamer) TGCGGAGGAAGGTTCGACCATCGTGCGGGTAGGTAGACC/GAACCTGGGGGAGTAGGTCTACCTACCCGCACGATGGTC
Nature of the assay: UV melting, first-peak height. Conditions: 150 mM NaCl, 5 mM MgCl2; 10 mM HEPES pH 7.4; 100 µM guanosine negative control; signal close to that of 5 µM adenosine.

Assay [2] has the same test system. The assay can be described thus: UV melting at 260 nm. Conditions: 150 mM NaCl, 5 mM MgCl2; 10 mM HEPES pH 7.4; 100 µM adenosine; 0.9 µM strands; first (aptachain) peak.
For assay [3], the system named is SA5-5A/B (DNA, aptamer) CCTGCGGAGGAAGGTTGACCATCGTGCGGGTAGGTAGA/AACCTGGGGGAGTAGGTCTACCTACCCGCACGATGGTC
Nature of the assay: UV melting at 260 nm. Particulars: 150 mM NaCl, 5 mM MgCl2; 10 mM HEPES pH 7.4; 100 µM adenosine; 0.9 µM strands; first (aptachain) peak.

The test system of assay [4] is SA5-6A/B (DNA, aptamer) CCTGCGGAGGAAGGTTCGACCATCGTGCGGGTAGGTAGA/GAACCTGGGGGAGTAGGTCTACCTACCCGCACGATGGTC
Nature of the assay: UV melting at 260 nm. Conditions: 150 mM NaCl, 5 mM MgCl2; 10 mM HEPES pH 7.4; 100 µM adenosine; 0.9 µM strands; first (aptachain) peak.

Assay [5] has as its system SA5-8A/B (DNA, aptamer) CCTGCGGAGGAAGGTTCTCGACCATCGTGCGGGTAGGTAGA/GAGAACCTGGGGGAGTAGGTCTACCTACCCGCACGATGGTC
The assay can be described thus: UV melting at 260 nm. Particulars: 150 mM NaCl, 5 mM MgCl2; 10 mM HEPES pH 7.4; 100 µM adenosine; 0.9 µM strands; first (aptachain) peak.

In assay [6] the test system is Apta6 (DNA, aptamer) GAACCTGGGGGAGTATTGCGGAGGAAGGTTC
The assay can be described thus: UV melting at 260 nm. Conditions: 150 mM NaCl, 5 mM MgCl2; 10 mM HEPES pH 7.4; 100 µM adenosine; 0.9 µM strand; single hairpin peak.

The subject of assay [7] is SA3-5A/B (DNA, aptamer) TGCGGAGGAAGGTTGAGGACCATCGTGCGGGTAGGTAGACC/GAGAACCTGGGGGAGTAGGTCTACCTACCCGCACGATGGTC
Nature of the assay: UV melting at 260 nm. Conditions: 150 mM NaCl, 5 mM MgCl2; 10 mM HEPES pH 7.4; 100 µM adenosine; peak at 28 °C only with adenosine, absent without.

In assay [8] the test system is SA3-6A/B (DNA, aptamer) TGCGGAGGAAGGTTCGACCATCGTGCGGGTAGGTAGACC/GAACCTGGGGGAGTAGGTCTACCTACCCGCACGATGGTC
The assay can be described thus: UV melting first-peak height, Langmuir fit. Particulars: 150 mM NaCl, 5 mM MgCl2; 10 mM HEPES pH 7.4; 0.9 µM strands; peak normalized to dimer peak; apparent; per site.

Consider `Nc1nc2c(ncn2[C@@H]2O[C@H](CO)[C@@H](O)[C@H]2O)c(=O)[nH]1`, for which, in assay [1], the binding entry is listed as “weak”.
As for `Nc1ncnc2c1ncn2[C@@H]1O[C@H](CO)[C@@H](O)[C@H]1O`, the ΔTm in assay [2] is 5.5 °C; in assay [3], 2.5 °C; in assay [4], 2.5 °C; in assay [5], 2 °C; in assay [6], less than 1 °C. In addition, the binding result in assay [7] is “yes”. For the same molecule, the KD in assay [8] turned out to be 19 ± 2 µM.
